Data: patent publication US11340226B2, “Squalene epoxidase in the diagnosis and treatment of non-alcoholic fatty liver diseases” (priority 2018, dated 2022)

Key:
[1] = tested on: HepG2 xenografts; assay: Subcutaneous HepG2 xenograft nude mice model; format: in vivo, Balb/c nude mice
Protocol: A xenograft human liver cancer mouse model was established using HepG2 cells. HepG2 cells (1×10^7 cells in 0.1 ml PBS) were injected subcutaneously into the left dorsal flank of 4-week-old male Balb/c nude mice. Once the subcutaneous tumors reached about 100 mm^3, these mice were divided into vehicle group (PBS, p.o.) and terbinafine group (80 mg/kg, p.o.) randomly. Tumor diameter was measured every days for 10 days. For survival analysis, tumor diameter was measured every two days for 40 days. Tumor volume (mm^3) was estimated by measuring the longest and shortest diameter of the tumor and calculating as follows: volume=(shortest diameter)^2×(longest diameter)×0.5. Care of animals and all experimental procedures were approved by the Animal Ethics Committee of the Chinese University of Hong Kong. After more than 2 weeks, the mice were sacrificed, and the tumors were weighed and fixed in formalin for histological analysis. […]
(§1) 10^6 cells or 2 mg tissues were harvested, and cholesterol/cholesteryl ester levels were detected by Cholesterol/Cholesteryl Ester Quantification kit (ab65359, Abcam) according to manufacturer's instructions. All experiments were conducted three times in triplicates. Results were shown as the means±SEM.

[2] = tested on: HKCI10; assay: Cell growth, cell viability (MTS) assay; format: cell-based; details: 25 μM to 50 μM
Protocol: (§2) 2 NAFLD-HCC cell lines (HKCI2, HKCI10) and one liver cancer cell line HepG2 were used in this study. Cell lines were maintained in RPMI-1640 or DMEM medium (Gibco BRL, Rockville, Md.) with 10% fetal bovine serum.
(§3) Cell viability was determined by the 3-(4,5-dimethylthiazol-2-yl)-5-(3-carboxyme-thoxyphenyl)-2-(4-sulfophenyl)-2H-tetrazolium (MTS) assay (Promega, Madison, Wis.).

[3] = tested on: HCC cell lines; assay: Cholesterol/cholesteryl ester levels in cells; format: cell-based
Protocol: as §1

[4] = tested on: Sqle tg mice fed with a HFHC diet; assay: NASH development in HFHC-fed Sqle tg mice; format: in vivo
Protocol: (§4) WT and Sqle Tg mice were fed with normal diet (18% fat, 58% carbohydrate, 24% protein, 0% cholesterol) or high fat high cholesterol (HFHC: 43.7% fat, 36.6% carbohydrate, 19.7% protein, 0.203% cholesterol) diets (Specialty Feeds, Glen Forrest, Wash.) ad libitum for different time point to generate spontaneous NAFLD model and diet-induced NASH model. 2 mg tissues were harvested, and liver cholesterol levels were detected by Cholesterol/Cholesteryl Ester Quantification kit (ab65359, Abcam) according to manufacturer's instructions. All experiments were conducted three times in triplicates. Results were shown as the means±SEM. 100 mg tissues were harvested, and liver triglyceride levels were detected by triglyceride Quantification kit (ab65336, Abcam) according to manufacturer's instructions. All experiments were conducted three times in triplicates. Results were shown as the means±SEM. Sqle tg mice and their wild-type littermates (WT) were fed a high fat high cholesterol diet at the age of 6 weeks. At 17 weeks of age (Sqle tg mice) or 24 weeks of age (WT mice), the mice will be randomized into two group and treated with either vehicle or Terbinafine (80 mg/kg/d, oral gavage). After 8 (WT mice) or 9 weeks (Sqle tg mice) terbinafine treatment, mice will be sacrificed to examine the therapeutic effect of Terbinafine. Assessment of NAFLD: Liver histology were evaluated at sacrifice using H&E staining. Assessment of inflammation: Liver damage were determined using serum ALT and AST. PCR and cytokine arrays were used to evaluate expression of pro-inflammatory cytokines. Assessment of metabolic syndrome: Insulin tolerance tests and glucose tolerance tests will be determined as described above. 20 mg tissues were harvested, and liver […] Quantification kit (ab65341, Abcam) according to manufacturer's instructions. All experiments were conducted three times in triplicates. Results were shown as the means±SEM. The serum cholesterol, TG, ALT and AST level were detected by the Catalyst One Chemistry Analyzer according to the manufacturer's instructions (IDEXX, USA). Thirty microliters of serum from wild-type or Sqle tg mice were diluted to 90 μl by physiological saline buffer. The diluted samples and specific slides (cholesterol, ALT and AST) were then loaded into the analyzer for automatic analysis. For the glucose tolerance test, mice were fasted overnight by transferring mice to clean cages with no food or feces in upper or bottom of cage. Mice were then injected intraperitoneally with 0.75 U insulin per kg body weight (ITT) or 1 g glucose per kg body weight (GTT) in water. Blood from the tail vein was obtained before the injection and at 30, 60 and 90 min after the injection for determination of blood glucose using Glucose Meter.

[5] = tested on: HFHC-fed WT mice; assay: HFHC-induced NAFLD in WT mice; format: in vivo
From the text: as §4, with “model.” for “model. 2 mg tissues were harvested, and liver cholesterol levels were detected by Cholesterol/Cholesteryl Ester Quantification kit (ab65359, Abcam) according to manufacturer's instructions. All experiments were conducted three times in triplicates. Results were shown as the means±SEM. 100 mg tissues were harvested, and liver triglyceride levels were detected by triglyceride Quantification kit (ab65336, Abcam) according to manufacturer's instructions. All experiments were conducted three times in triplicates. Results were shown as the means±SEM.”, “analysis.” for “analysis. For the glucose tolerance test, mice were fasted overnight by transferring mice to clean cages with no food or feces in upper or bottom of cage. Mice were then injected intraperitoneally with 0.75 U insulin per kg body weight (ITT) or 1 g glucose per kg body weight (GTT) in water. Blood from the tail vein was obtained before the injection and at 30, 60 and 90 min after the injection for determination of blood glucose using Glucose Meter.”

[6] = tested on: HKCI2; assay: Colony formation assay; format: cell-based, human; details: 25 μM to 50 μM
Protocol: as §2
(§5) For cell colony formation assay, liver cancer cells (1000/well) were plated in 6-well plates. Different dose of Terbinafine were added to these cells at the second day. After culturing for 5-7 days, cells were fixed with 70% ethanol and stained with 0.5% crystal violet solution. Colonies with more than 50 cells per colony were counted. All experiments were conducted three times in triplicates.

[7] = tested on: HepG2; assay: Colony formation assay; format: cell-based, human; details: 25 μM to 50 μM
Protocol: as §2, §5

[8] = tested on: Sqle tg mice injected with DEN and fed with a HFHC diet; format: in vivo
Protocol: Sqle tg mice injected with DEN (10 days of age) and fed with a HFHC diet (6 weeks of age). At 20 weeks of age, the mice will be randomized into two group and treated with either vehicle or Terbinafine (80 mg/kg/d, oral gavage). After 8 weeks terbinafine treatment, mice will be sacrificed to examine the therapeutic effect of Terbinafine. […]
The serum cholesterol, TG, ALT and AST level were detected by the Catalyst One Chemistry Analyzer according to the manufacturer's instructions (IDEXX, USA). Thirty microliters of serum from wild-type or Sqle tg mice were diluted to 90 μl by physiological saline buffer. The diluted samples and specific slides (cholesterol, ALT and AST) were then loaded into the analyzer for automatic analysis. […]

[9] = tested on: HKCI2; assay: Cell growth, cell viability (MTS) assay; format: cell-based, human; details: 25 μM to 50 μM
Protocol: as §2, §3

[10] = tested on: HepG2; assay: Cell growth, cell viability (MTS) assay; format: cell-based, human; details: 25 μM to 50 μM
Protocol: as §2, §3

[11] = tested on: HKCI10; assay: Colony formation assay; format: cell-based; details: 25 μM to 50 μM
Protocol: as §2, §5

[12] = tested on: orthotopic HKCI2 xenografts; assay: Orthotopic HKCI2 xenograft (human NAFLD-HCC) nude mice model; format: in vivo, Balb/c nude mice
Protocol: An orthotopic human NAFLD-HCC mouse model was established using HKCI2 cells. HKCI2 cells (1×10^7 cells in 0.1 ml PBS) were injected subcutaneously into the left dorsal flank of 4-week-old male Balb/c nude mice. Subcutaneous tumors were harvested once they reached about 10 mm^3 and cut into 1.0 mm^3 pieces. One piece of a tumor was implanted into the left liver lobe in a separate group of nude mice (4-week-old). Four weeks after implantation, these mice were divided into vehicle group (PBS, p.o.) and terbinafine group (80 mg/kg, p.o.). Eight weeks post-implantation, the mice were sacrificed and examined. 10^6 cells or 2 mg tissues were harvested, and cholesterol/cholesteryl ester levels were detected by Cholesterol/Cholesteryl Ester Quantification kit (ab65359, Abcam) according to manufacturer's instructions. All experiments were conducted three times in triplicates. Results were shown as the means±SEM.

[13] = tested on: SQLE and PCNA expression; assay: Western blot of SQLE and PCNA expression in treated cells; format: cell-based
[14] = subcutaneous HepG2 xenografts, 80 mg/kg/d, p.o.
[15] = 80 mg/kg/d oral gavage, 9 weeks
[16] = 80 mg/kg/d oral gavage, 8 weeks
[17] = DEN-injected HFHC-fed Sqle tg mice
[18] = livers of Sqle tg mice, western blot

For CN(C/C=C/C#CC(C)(C)C)Cc1cccc2ccccc12 [terbinafine], the “suppression of growth of subcutaneous HepG2 xenografts” value ([1]; 80 mg/kg, p.o., P<0.01) was 77.8%, the “tumor cholesteryl ester levels” value ([1]; HepG2 xenografts) was “suppressed” and the “tumor free cholesterol levels” value ([1]; HepG2 xenografts) was “suppressed”. The tumor volume [1, 14] was “significant reductions”, the tumor weight [1, 14] was “significant reductions” and the “overall survival of mice harboring HepG2 xenografts” value ([1]; tumor size 400 mm^3 as cutoff, P<0.01) was “significantly prolonged”. For the same compound, the “cell lines proliferation by cell growth assay” value [2] was “markedly suppressed”, the cholesteryl ester levels [3] was “suppressed” and the free cholesterol levels [3] was “suppressed”. For the same compound, the “insulin sensitivity (ITTs)” value [4] was “markedly improved”, the liver cholesterol level [4] was “significantly decreased” and the “liver free fatty acid accumulation” value [4] was “significantly decreased”. The liver triglyceride [4] was “significantly decreased”, the “serum ALT level” value [4] was “significantly decreased” and the “serum AST level” value [4] was “significantly decreased”. The serum triglyceride [4] was “significantly decreased”, the body weight gain [4, 15] was “significantly attenuated” and the liver weight [4, 15] was “significantly attenuated”. For the same compound, the liver/body weight ratio [4, 15] was “significantly attenuated”, the “liver inflammation and fibrosis level (mRNA expression of inflammation and fibrosis mediators)” value ([4]; qPCR) was “reduced” and the “steatohepatitis (H&E staining of livers)” value ([4]; vs PBS control) was “reduction”. For the same compound, the HFHC-induced serum cholesterol [5] was “attenuated”, the “liver steatosis (H&E staining and free fatty acid assay)” value [5] was “reduction” and the “serum ALT level” value [5] was “attenuated”. For the same compound, the “serum AST level” value [5] was “attenuated”, the serum triglyceride [5] was “attenuated” and the body weight [5, 16] was “significantly decrease”. The liver weight [5, 16] was “significantly decrease”, the “cell lines proliferation by colony formation assay” value [6] was “markedly suppressed” and the “cell lines proliferation by colony formation assay” value [7] was “markedly suppressed”. The tumor number ([8]; 80 mg/kg/d oral gavage, 8 weeks, P<0.01) was “significantly reduced”, the tumor incidence ([8]; 80 mg/kg/d oral gavage, 8 weeks, vs 8/9 mice in PBS, P<0.05) was 4/9 and the “NADP^+/NADPH ratio” value [8, 17] was “reducing”. For the same compound, the liver cholesterol levels [8, 17] was “decreased”, the liver/body weight ratio [8, 17] was “decreased” and the serum cholesterol levels [8, 17] was “decreased”. For the same compound, the Dnmt3a protein expression [8, 18] was “inhibited”, the Pten expression [8, 18] was “restored” and the Sqle protein expression [8, 18] was “inhibited”. The “HCC tumorigenesis and cell proliferation (H&E and Ki-67 staining of livers)” value ([8]; vs vehicle) was “reduction”, the “cell lines proliferation by cell growth assay” value [9] was “markedly suppressed” and the “cell lines proliferation by cell growth assay” value [10] was “markedly suppressed”. The “cell lines proliferation by colony formation assay” value [11] was “markedly suppressed”, the “suppression of growth of orthotopic HKCI2 xenografts” value ([12]; 80 mg/kg, p.o., both in terms of tumor size or tumor weight, P<0.01) was greater than 85% and the “tumor cholesteryl ester levels” value ([12]; HKCI2 xenografts) was “suppressed”. The “tumor free cholesterol levels” value ([12]; HKCI2 xenografts) was “suppressed”, the PCNA expression [13] was “suppressed” and the SQLE expression [13] was “suppressed”.
